Tested on: Crude diglycosidase
Test: Examination of pH in the conversion into isoflavone aglycons by diglycosidase using soybean materials
Assay type: biochemical, Penicillium multicolor IAM7153
Set-up: Decomposition efficiency of genistin family in soymilk / Decomposition efficiency of genistin family in defatted soybean / Decomposition efficiency of daidzin family in defatted soybean: concentration or dose not given beside the values
Settings: for Decomposition efficiency of daidzin family in roasted soy flour: 55° C.
Summary of the method: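 Each soybean material (50 mg) is suspended and set to a pH between 2 and 11. Crude diglycosidase, adjusted to 1.88 AU/mL in enzyme solution of the same pH, is added, and the mixture is incubated at 55° C. Ethanol is added at 0, 1, 3 and 6 h, then supernatants go to HPLC.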

[1] = pH4.8, heat treatment of enzyme: no, reaction time 0 h
[2] = pH4.8, heat treatment of enzyme: no, reaction time 1 h
[3] = pH4.8, heat treatment of enzyme: no, reaction time 3 h
[4] = pH4.8, heat treatment of enzyme: no, reaction time 6 h
[5] = pH4.8, heat treatment of enzyme: yes, reaction time 6 h
[6] = pH6.6, heat treatment of enzyme: no, reaction time 0 h
[7] = pH6.6, heat treatment of enzyme: no, reaction time 1 h
[8] = pH6.6, heat treatment of enzyme: no, reaction time 3 h
[9] = pH6.6, heat treatment of enzyme: no, reaction time 6 h
[10] = pH6.6, heat treatment of enzyme: yes, reaction time 6 h

Decomposition efficiency of daidzin family in concentrated soybean protein (pH1.6, heat treatment of enzyme: no, reaction time 0 h): not detected
Decomposition efficiency of daidzin family in concentrated soybean protein (pH1.6, heat treatment of enzyme: no, reaction time 1 h): not detected
Decomposition efficiency of daidzin family in concentrated soybean protein (pH1.6, heat treatment of enzyme: no, reaction time 3 h): not detected
Decomposition efficiency of daidzin family in concentrated soybean protein (pH1.6, heat treatment of enzyme: no, reaction time 6 h): not detected
Decomposition efficiency of daidzin family in concentrated soybean protein (pH1.6, heat treatment of enzyme: yes, reaction time 6 h): not detected
Decomposition efficiency of daidzin family in roasted soy flour (pH2, heat treatment of enzyme no, reaction time 0 h): not detected
Decomposition efficiency of daidzin family in roasted soy flour (pH2, heat treatment of enzyme no, reaction time 1 h): not detected
Decomposition efficiency of daidzin family in roasted soy flour (pH2, heat treatment of enzyme no, reaction time 3 h): not detected
Decomposition efficiency of daidzin family in roasted soy flour (pH2, heat treatment of enzyme no, reaction time 6 h): not detected
Decomposition efficiency of daidzin family in roasted soy flour (pH2, heat treatment of enzyme yes, reaction time 6 h): not detected
Decomposition efficiency of daidzin family in soymilk (pH2.3, heat treatment of enzyme: no, reaction time 0 h): 55.1%
Decomposition efficiency of daidzin family in soymilk (pH2.3, heat treatment of enzyme: no, reaction time 1 h): 54.7%
Decomposition efficiency of daidzin family in soymilk (pH2.3, heat treatment of enzyme: no, reaction time 3 h): 51.1%
Decomposition efficiency of daidzin family in soymilk (pH2.3, heat treatment of enzyme: no, reaction time 6 h): 48.5%
Decomposition efficiency of daidzin family in soymilk (pH2.3, heat treatment of enzyme: yes, reaction time 6 h): 51.0%
Decomposition efficiency of daidzin family in defatted soybean (pH2.6, heat treatment of enzyme: no, reaction time 0 h): 41.0%
Decomposition efficiency of daidzin family in defatted soybean (pH2.6, heat treatment of enzyme: no, reaction time 1 h): 41.2%
Decomposition efficiency of daidzin family in defatted soybean (pH2.6, heat treatment of enzyme: no, reaction time 3 h): 41.8%
Decomposition efficiency of daidzin family in defatted soybean (pH2.6, heat treatment of enzyme: no, reaction time 6 h): 40.2%
Decomposition efficiency of daidzin family in defatted soybean (pH2.6, heat treatment of enzyme: yes, reaction time 6 h): 38.9%
Decomposition efficiency of daidzin family in concentrated soybean protein (pH2.7, heat treatment of enzyme: no, reaction time 0 h): not detected
Decomposition efficiency of daidzin family in concentrated soybean protein (pH2.7, heat treatment of enzyme: no, reaction time 1 h): not detected
Decomposition efficiency of daidzin family in concentrated soybean protein (pH2.7, heat treatment of enzyme: no, reaction time 3 h): not detected
Decomposition efficiency of daidzin family in concentrated soybean protein (pH2.7, heat treatment of enzyme: no, reaction time 6 h): not detected
Decomposition efficiency of daidzin family in concentrated soybean protein (pH2.7, heat treatment of enzyme: yes, reaction time 6 h): not detected
Decomposition efficiency of daidzin family in roasted soy flour (pH3, heat treatment of enzyme no, reaction time 0 h): not detected
Decomposition efficiency of daidzin family in roasted soy flour (pH3, heat treatment of enzyme no, reaction time 1 h): not detected
Decomposition efficiency of daidzin family in roasted soy flour (pH3, heat treatment of enzyme no, reaction time 3 h): not detected
Decomposition efficiency of daidzin family in roasted soy flour (pH3, heat treatment of enzyme no, reaction time 6 h): not detected
Decomposition efficiency of daidzin family in roasted soy flour (pH3, heat treatment of enzyme yes, reaction time 6 h): not detected
Decomposition efficiency of daidzin family in defatted soybean (pH3.4, heat treatment of enzyme: no, reaction time 0 h): 41.0%
Decomposition efficiency of daidzin family in defatted soybean (pH3.4, heat treatment of enzyme: no, reaction time 1 h): 39.4%
Decomposition efficiency of daidzin family in defatted soybean (pH3.4, heat treatment of enzyme: no, reaction time 3 h): 34.5%
Decomposition efficiency of daidzin family in defatted soybean (pH3.4, heat treatment of enzyme: no, reaction time 6 h): 29.0%
Decomposition efficiency of daidzin family in defatted soybean (pH3.4, heat treatment of enzyme: yes, reaction time 6 h): 37.1%
Decomposition efficiency of daidzin family in soymilk (pH3.5, heat treatment of enzyme: no, reaction time 0 h): 55.1%
Decomposition efficiency of daidzin family in soymilk (pH3.5, heat treatment of enzyme: no, reaction time 1 h): 35.6%
Decomposition efficiency of daidzin family in soymilk (pH3.5, heat treatment of enzyme: no, reaction time 3 h): 15.1%
Decomposition efficiency of daidzin family in soymilk (pH3.5, heat treatment of enzyme: no, reaction time 6 h): 7.4%
Decomposition efficiency of daidzin family in soymilk (pH3.5, heat treatment of enzyme: yes, reaction time 6 h): 49.1%
Decomposition efficiency of daidzin family in concentrated soybean protein (pH3.7, heat treatment of enzyme: no, reaction time 0 h): not detected
Decomposition efficiency of daidzin family in concentrated soybean protein (pH3.7, heat treatment of enzyme: no, reaction time 1 h): not detected
Decomposition efficiency of daidzin family in concentrated soybean protein (pH3.7, heat treatment of enzyme: no, reaction time 3 h): not detected
Decomposition efficiency of daidzin family in concentrated soybean protein (pH3.7, heat treatment of enzyme: no, reaction time 6 h): not detected
Decomposition efficiency of daidzin family in concentrated soybean protein (pH3.7, heat treatment of enzyme: yes, reaction time 6 h): not detected
Decomposition efficiency of daidzin family in roasted soy flour (pH4, heat treatment of enzyme no, reaction time 0 h): not detected
Decomposition efficiency of daidzin family in roasted soy flour (pH4, heat treatment of enzyme no, reaction time 1 h): not detected
Decomposition efficiency of daidzin family in roasted soy flour (pH4, heat treatment of enzyme no, reaction time 3 h): not detected
Decomposition efficiency of daidzin family in roasted soy flour (pH4, heat treatment of enzyme no, reaction time 6 h): not detected
Decomposition efficiency of daidzin family in roasted soy flour (pH4, heat treatment of enzyme yes, reaction time 6 h): not detected
Decomposition efficiency of daidzin family in defatted soybean [1]: 40.7%
Decomposition efficiency of daidzin family in soymilk [1]: 56.2%
Decomposition efficiency of daidzin family in defatted soybean [2]: 40.5%
Decomposition efficiency of daidzin family in soymilk [2]: 47.4%
Decomposition efficiency of daidzin family in defatted soybean [3]: 36.7%
Decomposition efficiency of daidzin family in soymilk [3]: 33.9%
Decomposition efficiency of daidzin family in defatted soybean [4]: 30.5%
Decomposition efficiency of daidzin family in soymilk [4]: 20.3%
Decomposition efficiency of daidzin family in defatted soybean [5]: 38.4%
Decomposition efficiency of daidzin family in soymilk [5]: 49.7%
Decomposition efficiency of daidzin family in roasted soy flour (pH5, heat treatment of enzyme no, reaction time 0 h): not detected
Decomposition efficiency of daidzin family in roasted soy flour (pH5, heat treatment of enzyme no, reaction time 1 h): not detected
Decomposition efficiency of daidzin family in roasted soy flour (pH5, heat treatment of enzyme no, reaction time 3 h): not detected
Decomposition efficiency of daidzin family in roasted soy flour (pH5, heat treatment of enzyme no, reaction time 6 h): not detected
Decomposition efficiency of daidzin family in roasted soy flour (pH5, heat treatment of enzyme yes, reaction time 6 h): not detected
Decomposition efficiency of daidzin family in concentrated soybean protein (pH5.1, heat treatment of enzyme: no, reaction time 0 h): not detected
Decomposition efficiency of daidzin family in concentrated soybean protein (pH5.1, heat treatment of enzyme: no, reaction time 1 h): not detected
Decomposition efficiency of daidzin family in concentrated soybean protein (pH5.1, heat treatment of enzyme: no, reaction time 3 h): not detected
Decomposition efficiency of daidzin family in concentrated soybean protein (pH5.1, heat treatment of enzyme: no, reaction time 6 h): not detected
Decomposition efficiency of daidzin family in concentrated soybean protein (pH5.1, heat treatment of enzyme: yes, reaction time 6 h): not detected
Decomposition efficiency of daidzin family in defatted soybean (pH5.4, heat treatment of enzyme: no, reaction time 0 h): 40.7%
Decomposition efficiency of daidzin family in defatted soybean (pH5.4, heat treatment of enzyme: no, reaction time 1 h): 44.2%
Decomposition efficiency of daidzin family in defatted soybean (pH5.4, heat treatment of enzyme: no, reaction time 3 h): 41.5%
Decomposition efficiency of daidzin family in defatted soybean (pH5.4, heat treatment of enzyme: no, reaction time 6 h): 36.9%
Decomposition efficiency of daidzin family in defatted soybean (pH5.4, heat treatment of enzyme: yes, reaction time 6 h): 44.9%
Decomposition efficiency of daidzin family in soymilk (pH6.2, heat treatment of enzyme: no, reaction time 0 h): 56.2%
Decomposition efficiency of daidzin family in soymilk (pH6.2, heat treatment of enzyme: no, reaction time 1 h): 54.1%
Decomposition efficiency of daidzin family in soymilk (pH6.2, heat treatment of enzyme: no, reaction time 3 h): 46.4%
Decomposition efficiency of daidzin family in soymilk (pH6.2, heat treatment of enzyme: no, reaction time 6 h): 41.9%
Decomposition efficiency of daidzin family in soymilk (pH6.2, heat treatment of enzyme: yes, reaction time 6 h): 49.7%
Decomposition efficiency of daidzin family in roasted soy flour (pH6.5, heat treatment of enzyme no, reaction time 0 h): not detected
Decomposition efficiency of daidzin family in roasted soy flour (pH6.5, heat treatment of enzyme no, reaction time 1 h): not detected
Decomposition efficiency of daidzin family in roasted soy flour (pH6.5, heat treatment of enzyme no, reaction time 3 h): not detected
Decomposition efficiency of daidzin family in roasted soy flour (pH6.5, heat treatment of enzyme no, reaction time 6 h): not detected
Decomposition efficiency of daidzin family in roasted soy flour (pH6.5, heat treatment of enzyme yes, reaction time 6 h): not detected
Decomposition efficiency of daidzin family in concentrated soybean protein [6]: not detected
Decomposition efficiency of daidzin family in defatted soybean [6]: 43.1%
Decomposition efficiency of daidzin family in concentrated soybean protein [7]: not detected
Decomposition efficiency of daidzin family in defatted soybean [7]: 45.9%
Decomposition efficiency of daidzin family in concentrated soybean protein [8]: not detected
Decomposition efficiency of daidzin family in defatted soybean [8]: 44.0%
Decomposition efficiency of daidzin family in concentrated soybean protein [9]: not detected
Decomposition efficiency of daidzin family in defatted soybean [9]: 41.8%
Decomposition efficiency of daidzin family in concentrated soybean protein [10]: not detected
Decomposition efficiency of daidzin family in defatted soybean [10]: 41.2%
Decomposition efficiency of daidzin family in soymilk (pH7.2, heat treatment of enzyme: no, reaction time 0 h): 56.1%
Decomposition efficiency of daidzin family in soymilk (pH7.2, heat treatment of enzyme: no, reaction time 1 h): 56.4%
Decomposition efficiency of daidzin family in soymilk (pH7.2, heat treatment of enzyme: no, reaction time 3 h): 52.4%
Decomposition efficiency of daidzin family in soymilk (pH7.2, heat treatment of enzyme: no, reaction time 6 h): 48.2%
Decomposition efficiency of daidzin family in soymilk (pH7.2, heat treatment of enzyme: yes, reaction time 6 h): 48.3%
Decomposition efficiency of daidzin family in defatted soybean (pH7.8, heat treatment of enzyme: no, reaction time 0 h): 42.0%
Decomposition efficiency of daidzin family in defatted soybean (pH7.8, heat treatment of enzyme: no, reaction time 1 h): 43.6%
Decomposition efficiency of daidzin family in defatted soybean (pH7.8, heat treatment of enzyme: no, reaction time 3 h): 41.4%
Decomposition efficiency of daidzin family in defatted soybean (pH7.8, heat treatment of enzyme: no, reaction time 6 h): 38.7%
Decomposition efficiency of daidzin family in defatted soybean (pH7.8, heat treatment of enzyme: yes, reaction time 6 h): 36.7%
Decomposition efficiency of daidzin family in roasted soy flour (pH8.5, heat treatment of enzyme no, reaction time 0 h): not detected
Decomposition efficiency of daidzin family in roasted soy flour (pH8.5, heat treatment of enzyme no, reaction time 1 h): not detected
Decomposition efficiency of daidzin family in roasted soy flour (pH8.5, heat treatment of enzyme no, reaction time 3 h): not detected
Decomposition efficiency of daidzin family in roasted soy flour (pH8.5, heat treatment of enzyme no, reaction time 6 h): not detected
Decomposition efficiency of daidzin family in roasted soy flour (pH8.5, heat treatment of enzyme yes, reaction time 6 h): not detected
Decomposition efficiency of daidzin family in concentrated soybean protein (pH8.6, heat treatment of enzyme: no, reaction time 0 h): not detected
Decomposition efficiency of daidzin family in concentrated soybean protein (pH8.6, heat treatment of enzyme: no, reaction time 1 h): not detected
Decomposition efficiency of daidzin family in concentrated soybean protein (pH8.6, heat treatment of enzyme: no, reaction time 3 h): not detected
Decomposition efficiency of daidzin family in concentrated soybean protein (pH8.6, heat treatment of enzyme: no, reaction time 6 h): not detected
Decomposition efficiency of daidzin family in concentrated soybean protein (pH8.6, heat treatment of enzyme: yes, reaction time 6 h): not detected
Decomposition efficiency of daidzin family in soymilk (pH11.6, heat treatment of enzyme: no, reaction time 0 h): 52.5%
Decomposition efficiency of daidzin family in soymilk (pH11.6, heat treatment of enzyme: no, reaction time 1 h): 56.4%
Decomposition efficiency of daidzin family in soymilk (pH11.6, heat treatment of enzyme: no, reaction time 3 h): 50.4%
Decomposition efficiency of daidzin family in soymilk (pH11.6, heat treatment of enzyme: no, reaction time 6 h): 47.7%
Decomposition efficiency of daidzin family in soymilk (pH11.6, heat treatment of enzyme: yes, reaction time 6 h): 46.1%
SMILES: O=C(O)CC(=O)OC[C@H]1O[C@@H](Oc2ccc3c(=O)c(-c4ccc(O)cc4)coc3c2)[C@H](O)[C@@H](O)[C@@H]1O [malonyldaidzin, 6″-O-malonyldaidzin]

From patent US7118895B2, “Process for producing aglycon by using diglycosidase and flavor-improved food containing the aglycon and converting agent to be used in the process” (Amano Enzyme Inc., priority 2000, dated 2006)
